We go through two molecules from US20260061008A1, “METHODS OF INCREASING MESENCHYMAL STROMAL CELL BIOSYNTHESIS OF SPECIALIZED PRO-RESOLVING MEDIATORS AND METHODS OF USE” (University of Oregon, priority 2022, published 2026).

One assay concerns OA progression. Conditions: mice, repeated intra-articular injections into knee joints; cited from earlier work.
The test system of assay [1] is MSCs encapsulated in PEG-4MAL hydrogels. The assay can be described thus: RvD1 ELISA of media from MSCs encapsulated in PEG-4MAL hydrogels and treated with DHA. It is filed as cell-based. Conditions: 160 μM DHA, TCP and PEG-4MAL encapsulated MSCs. The procedure:
MSCs were cultured in Tissue Culture Plastic (TCP) or encapsulated in PEG-4MAL hydrogels. The 20 kDa four-arm PEG-4MAL was sourced from Laysan Bio (Item #: 4arm-PEG-20K-5g). A solution of 4% w/v PEG in a 0.5 M (pH=7) MES buffer was prepared. The two peptides, RGD (GCGYGRGDSPG; SEQ ID NO: 1) for functionalization of the gel and VPM (GCRDVPMSMRGGDRCG; SEQ ID NO: 2) for crosslinking were also dissolved in the 0.5 M MES buffer. The hydrogels were prepared using a 2:1:1:1 volume ratio of PEG: RGD: cells/PBS: VPM. The 4% PEG translates to 2 mM in the hydrogel prepared from a 5 mM PEG stock solution. Based on the concentration of maleimides per PEG molecule (8 mM maleimide in 2 mM PEG-4MAL) the RGD concentration was 0.768 mM final concentration in the gel (from a 3.84 mM stock and accounting for ˜96% purity) and the VPM concentration required to cross-link the remaining maleimides in the PEG was 3.456 mM final in the gel (17.28 mM stock). […]
MSCs were treated with 160 μM DHA in the hydrogels in three different conditions. […] Samples of cell culture media were taken incrementally over a period of five days and Resolvin D1 levels were measured via ELISA assay. In addition, samples of the cell culture medium were taken 24 hours after treatment for each group and these samples were analyzed by LCMS (Wayne State University Lipidomics core facility).
Background: In an ELISA, binding on a coated surface is turned into a signal by an enzyme label.

For the molecule `CC/C=C\C[C@H](O)/C=C/C=C\C=C\C=C\[C@@H](O)[C@@H](O)C/C=C\CCC(=O)O` [Resolvin D1], the OA progression result in the assay with OA progression is given as “attenuate OA progression”.

For the molecule `CC/C=C\C/C=C\C/C=C\C/C=C\C/C=C\C/C=C\CCC(=O)O` [DHA, docosahexaenoic acid], the “Duration of continued RvD1 production” value in assay [1] was “at least 120 hours”.
